Several values for one entry are separate records, joined by “and”; a condition that tells them apart may be missing. Identical values can stand only once.
Legend:
Type in all cases: in vivo, rat
9L glioma [1] = assay: IA-TCH versus IV delivery: uptake by multi-spectral imaging of gross specimens
Source text: (§1) Comparison of […] and IV TAT delivery. Fisher 344 rats weighing about 200 g were utilized. During initial surgery under ketamine-xylazine isoflurane anesthesia 5×10^5 9 L cells were implanted 3 mm below the skull and 2-3 mm posterior and lateral to the bregma through a 1 mm craniotomy. […] The animals were assigned separately to IV and IA-TCH groups. On the day of drug delivery, animals were sedated with isoflurane and injected with ketamine/xylazine. The tail vein was cannulated for intravenous access. Under aseptic precautions, a tracheostomy and carotid cannulation were performed. Anesthesia was maintained by mechanical ventilation with isoflurane (1.8-2.2%). Thereafter animals were turned prone on a stereotactic frame. The skull was exposed and the region of tumor implantation was shaved to transparency. A laser Doppler probe was implanted on the skull with the aid of a plastic holder to assess cerebral/tumor blood flow. Rectal temperature, pulse pleth (volume), pulse oxygen saturation, EKG, expired and inspired gas composition, brain and skin blood flow with lase Doppler were continuously monitored.
(§2) Transient cerebral hypoperfusion and fluorescein-labeled TAT monomer injection. IA injections were made during TCH by the following method. Reduction of blood flow was achieved by bolus IV injections of adenosine (2 mg) and esmolol (2 mg), and cold saline (1.5 mL at 4° C.). Typically such an intervention decreases cerebral blood flow to about 20% of the baseline. The heart rate response varies from sinus bradycardia to a sinus pause. However, physiological parameters rapidly recover within 3-5 minutes. […] For each animal, a test IA injection was done prior to the onset of hypotension to ensure delivery of the desired injection volume and the injection sequence was resumed after bolus IV injections of hypotensive drugs.
Postmortem imaging. In preliminary experiments, known quantities of fluorescein-labeled TAT monomer was dissolved in intralipid and imaged using the multi-spectral imaging system. The multi-spectral imaging system contained two 470 nm light emitting diodes that evenly illuminated the test sample (Thor Labs Inc., NJ). An Evolve-512 (Photometerics Inc., Tucson, AZ) photon multiplying charge coupled device was used to image the sample through a 530 nm band pass filter. The camera is capable of performing background corrections and measuring the photon counts from the region of interest. Imaging conditions (sample, light source, and camera placements) were standardized throughout the experiment.
Immediately after sacrifice, the brains were harvested and immersed in cold saline. […] Samples were loaded on two capillary glass tubes that were placed alongside the tissue samples. Typically each specimen had 4 sections, one of which through the plane of the tumor was sent for frozen section, the remainder were placed in paraformaldehyde for paraffin blocks and histological sectioning.

9L glioma tumors = assay: Single arrest study: IV versus IA-TCH (multi-spectral imaging and confocal microscopy)
Procedure: Single Arrest Study. 9L glioma tumors were implanted into eight rats. […] Animals were sacrificed 15 minutes after injection. […] Brain tissues were also hematoxylin and eosin stained and imaged by confocal microscopy.

9L glioma [2] = assay: Quantitative tumor TAT-FITC uptake, electron multiplying charge-coupled device imaging
Source text: In addition to the standard fluorescence imaging described above, we assess tumor uptake of TAT-FITC using a higher resolution, quantitative tool utilizing an electron-multiplying charge coupled device. To accomplish this we used two warm white light LEDs to evenly illuminate the tissue samples through a narrow (10 nm) band pass filter with 470 nm central transmission (Thor Labs, New Jersey). An Evolve 520 high sensitivity electron multiplying charge-coupled device (Photometeric Inc. Tucson, AZ) was utilized while using a 520 nm narrow band pass filter. Each sample was normalized to the background and to the injected drug concentrations. Four 2 mm sections were interrogated for each specimen on either side of the plane of tumor implantation. The data was corrected for ambient light, tissue independent background fluorescence, and contralateral hemisphere tissue fluorescence.

[3] = Physiological changes during IA-TCH and IV delivery
Source text: as §1, §2
Physiological parameters. Key parameters included inspired and expired gas composition, laser Doppler skin and brain/tumor blood flow, EKG for heart rate, pleth pulse, oxygen saturation, and rectal temperature which were continuously monitored. Data were analyzed at four time points: baseline, at the time of IA injection, 5 minutes after the start of injection, and at the end of the experiment. […] Immediately after sacrifice, brain tissue was harvested for imaging. All physiological data was recorded at 200 Hz by a Mac Lab data collection system.

[4] = IV injection, confocal microscopy
[5] = IV injection, multi-spectral imaging

N=C(N)NCCC[C@H](NC(=O)CNC(=O)c1ccc2c(c1)C(=O)OC21c2ccc(O)cc2Oc2cc(O)ccc21)C(=O)N[C@@H](CCCCN)C(=O)N[C@@H](CCCCN)C(=O)N[C@@H](CCCNC(=N)N)C(=O)N[C@@H](CCCNC(=N)N)C(=O)N[C@@H](CCC(N)=O)C(=O)N[C@@H](CCCNC(=N)N)C(=O)N[C@@H](CCCNC(=N)N)C(=O)N[C@@H](CCCNC(=N)N)C(=O)N1CCC[C@H]1C(=O)N1CCC[C@H]1C(=O)N[C@@H](CCC(N)=O)C(=O)N[C@@H](CCC(N)=O)C(=O)O [fluorescein-labeled TAT monomer, 5-FAM-GRKKRRQRRR PPQQ-COOH]
Tumor concentration compared to brain tissue on the ipsi-lateral side (9L glioma [1]; IA-TCH): 6.1 fold
Contralateral fluorescence (9L glioma [1]; IA-TCH, n = 6): 0.029 ± 0.012 AU
Ipsi/contra-lateral ratio (9L glioma [1]; IA-TCH, n = 6): 1.7 ± 0.5
Ipsilateral fluorescence (9L glioma [1]; IA-TCH, n = 6): 0.047 ± 0.019 AU
Tumor fluorescence (9L glioma [1]; IA-TCH, n = 6): 0.277 ± 0.139 AU
Tumor/contralateral ratio (9L glioma [1]; IA-TCH, n = 6): 10.1 ± 4.9
Tumor/ipsilateral ratio (9L glioma [1]; IA-TCH, n = 6): 6.1 ± 2.6
Tumor concentration compared to brain tissue on the ipsi-lateral side (9L glioma [1]; IV): 2.3 fold and 2.4 fold
Ipsi/contra-lateral ratio (9L glioma [1]; IV, n = 6): 1.1 ± 0.3
Ipsilateral fluorescence (9L glioma [1]; IV, n = 6): 0.028 ± 0.005 AU
Tumor fluorescence (9L glioma [1]; IV, n = 6): 0.063 ± 0.030 AU
Tumor/contralateral ratio (9L glioma [1]; IV, n = 6): 2.7 ± 1.5
Tumor/ipsilateral ratio (9L glioma [1]; IV, n = 6): 2.4 ± 1.2
Overall effectiveness of IA-TCH relative to IV (9L glioma [1]; rat, in vivo): 4 ×
Tumor selectivity (9L glioma tumors; IA-TCH): 5-6 ×
Fluorescence in the tumor versus the contralateral hemisphere (9L glioma tumors; IA-TCH, confocal microscopy): 10.78 ×
Fluorescence in the tumor versus the ipsilateral brain tissue (9L glioma tumors; IA-TCH, confocal microscopy): 5.07 ×
Fluorescence in the tumor versus the contralateral hemisphere (9L glioma tumors; IA-TCH, multi-spectral imaging): 9.90 ×
Fluorescence in the tumor versus the ipsilateral brain tissue (9L glioma tumors; IA-TCH, multi-spectral imaging): 5.93 ×
Fluorescence in the tumor versus the contralateral hemisphere (9L glioma tumors; [4]): 2.61 ×
Fluorescence in the tumor versus the ipsilateral brain tissue (9L glioma tumors; [4]): 2.43 ×
Fluorescence in the tumor versus the contralateral hemisphere (9L glioma tumors; [5]): 2.72 ×
Fluorescence in the tumor versus the ipsilateral brain tissue (9L glioma tumors; [5]): 2.59 ×
Tumor selectivity (9L glioma tumors; IV injections): 2 ×
Tumor concentration, IA-TCH relative to IV (9L glioma tumors; rat, in vivo, iv): about four-fold greater
Tumor TAT deposition compared to the corresponding contralateral region (9L glioma [2]; IA-TCH, N=8): 11.7 fold
Fluorescence in the tumor compared to the ipsilateral non-tumor regions (9L glioma [2]; six animals, FIG. 19E): 7.4 ×
Fluorescence in the tumor compared to the tumor site on the contralateral hemisphere (9L glioma [2]; six animals, FIG. 19E): 10.5 ×
CBF ([3]; IA-TCH, 5 min): 90 ± 32 % Δbase
ETCO2 ([3]; IA-TCH, 5 min): 71 ± 17 % Δbase
HR ([3]; IA-TCH, 5 min): 273 ± 59 BMP
Isoflurane ([3]; IA-TCH, 5 min): 1.8 ± 0.8 ET %
SaO2 ([3]; IA-TCH, 5 min): 95%
Sk · BF ([3]; IA-TCH, 5 min): 104 ± 38 % Δbase
Temp ([3]; IA-TCH, 5 min): 36.6 ± 1.1 °C
CBF ([3]; IA-TCH, Base): 100 ± 0 % Δbase
ETCO2 ([3]; IA-TCH, Base): 100 ± 0 % Δbase
HR ([3]; IA-TCH, Base): 289 ± 19 BMP
Isoflurane ([3]; IA-TCH, Base): 2.2 ± 0.2 ET %
SaO2 ([3]; IA-TCH, Base): 98 ± 2%
Sk · BF ([3]; IA-TCH, Base): 100 ± 0 % Δbase
Temp ([3]; IA-TCH, Base): 37.1 ± 1.3 °C
CBF ([3]; IA-TCH, End): 81 ± 13 % Δbase
ETCO2 ([3]; IA-TCH, End): 92 ± 27 % Δbase
HR ([3]; IA-TCH, End): 310 ± 11 BMP
Isoflurane ([3]; IA-TCH, End): 2.2 ± 0.4 ET %
Sk · BF ([3]; IA-TCH, End): 92 ± 16 % Δbase
Temp ([3]; IA-TCH, End): 36.9 ± 1.1 °C
CBF ([3]; IA-TCH, Injection): 29 ± 26 % Δbase
ETCO2 ([3]; IA-TCH, Injection): 54 ± 50 % Δbase
HR ([3]; IA-TCH, Injection): 63 ± 41 BMP
Isoflurane ([3]; IA-TCH, Injection): 0.8 ± 0.9 ET %
SaO2 ([3]; IA-TCH, Injection): 92 ± 11 %
Sk · BF ([3]; IA-TCH, Injection): 18 ± 10 % Δbase
Temp ([3]; IA-TCH, Injection): 36.6 ± 1.3 °C
CBF ([3]; IV, 5 min): 73 ± 13b % Δbase
ETCO2 ([3]; IV, 5 min): 85 ± 37 % Δbase
HR ([3]; IV, 5 min): 267 ± 68 BMP
Isoflurane ([3]; IV, 5 min): 2.1 ± 0.2 ET %
SaO2 ([3]; IV, 5 min): 97 ± 4%
Sk · BF ([3]; IV, 5 min): 106 ± 28 % Δbase
Temp ([3]; IV, 5 min): 36.1 ± 0.9 °C
CBF ([3]; IV, Base): 100 ± 0 % Δbase
ETCO2 ([3]; IV, Base): 100 ± 0 % Δbase
HR ([3]; IV, Base): 267 ± 17 BMP
Isoflurane ([3]; IV, Base): 2.2 ± 0.3 ET %
SaO2 ([3]; IV, Base): 100 ± 5%
Sk · BF ([3]; IV, Base): 100 ± 0 % Δbase
Temp ([3]; IV, Base): 35.9 ± 0.9 °C
CBF ([3]; IV, End): 73 ± 12b % Δbase
ETCO2 ([3]; IV, End): 86 ± 14 % Δbase
HR ([3]; IV, End): 283 ± 10 BMP
Isoflurane ([3]; IV, End): 2.1 ± 0.3 ET %
SaO2 ([3]; IV, End): 99 ± 2%
Sk · BF ([3]; IV, End): 116 ± 30 % Δbase
Temp ([3]; IV, End): 36.5 ± 1.0 °C
CBF ([3]; IV, Injection): 122 ± 21 % Δbase
ETCO2 ([3]; IV, Injection): 75 ± 39 % Δbase
HR ([3]; IV, Injection): 274 ± 31 BMP
Isoflurane ([3]; IV, Injection): 0.4 ± 0.1 ET %
SaO2 ([3]; IV, Injection): 97 ± 4%
Sk · BF ([3]; IV, Injection): 144 ± 50a,# % Δbase
Temp ([3]; IV, Injection): 35.9 ± 0.9 °C

Reference: US11980667B2, “Short TAT oligomers for drug delivery” (The Trustees of Columbia University in the City of New York, priority 2017, dated 2024)
